Target: T1, RyR1-W995A R12 (Homo sapiens, UniProt P21817, W995A)
T1 construct: RyR1 854–1054, RyR2 865–1065, RyR3 853–1053; made in house; host or cells: E. coli BL21 (DE3)
T1 sequence (P21817 854-1054 W995A): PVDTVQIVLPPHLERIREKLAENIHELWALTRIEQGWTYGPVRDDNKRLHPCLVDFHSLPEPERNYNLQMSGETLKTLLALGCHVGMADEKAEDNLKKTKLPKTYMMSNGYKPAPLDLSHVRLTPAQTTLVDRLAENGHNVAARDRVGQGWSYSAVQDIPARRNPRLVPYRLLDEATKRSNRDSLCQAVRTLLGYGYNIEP
Assay: ITC, RyR1 R12 W995A
Type: binding
Experimental: The plasmids were subsequently transformed into E. coli BL21 (DE3) cells (NEB, USA) and cultured in Luria-Bertani (LB) media at 37 °C. Protein expression was induced with 0.4 mM isopropyl β-D-thiogalactoside (IPTG) when the optical density (OD)600 reached ~0.8, followed by incubation at 18 °C for 12 h. The cells were harvested via centrifugation at 5,000 × g for 15 min at 4 °C and homogenized in Buffer A (10 mM HEPES, pH 7.4, 250 mM KCl) supplemented with 25 µg/mL DNaseI, 25 µg/mL lysozyme, 1 mM phenylmethylsulfonyl fluoride (PMSF), and 20 mM imidazole. The homogenate was centrifuged at 12,000 × g for 45 min, and the supernatant was filtered through a syringe filter (0.22 µm).
Purified R12 domain protein from the three RyR isoforms, fused with hexahistidine-tagged MBP (HMT-R12) was dialyzed overnight at 4 °C in ITC buffer (200 mM HEPES, pH 7.4, 150 mM KCl). ITC experiments were performed using a PEAQ-ITC instrument (Malvern, UK) at 25 °C with a stirring speed of 750 rpm. […] For the ternary binding experiments, 500 μM or 5 mM AMP-PCP/ADP was preincubated with both the titrants and titrates. […] The data was fit to a one-site fitting model after background buffer subtraction. The RyR1 R12 mutants were generated using a QuikChange mutagenesis kit (Stratagene) according to the manufacturer’s protocol, with primer sequences listed in Supplementary Table 3.

binding to RyR1 R12 W995A by ITC (in the presence of AMP-PCP or ADP): can no longer be detected | binding to RyR1 R12 W995A by ITC (no nucleotide): completely abolishes
Compound: O=C1CN(/N=C/c2ncc(-c3ccc(Br)cc3)o2)C(=O)N1 [AZU, Azumolene]
